According to the supplement of paper PMC8671470:

Tests used:
Conditions in all cases: 72 h
ML-2 = system: ML-2
Procedure, shortened: (§1)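 Seeded in RPMI 1640 at densities within the linear growth range, fifteen myeloid leukaemia cell lines were dispensed into 384-well plates with acoustically pre-printed compounds spanning five tenfold doses from 1 to 10,000 nM, in duplicate. The plates were kept for 72 h at 37 °C in 5% CO2 before luminescent ATP viability was measured and normalised to vehicle and to a positive control at 10 µM. Curves were fitted with a four-parameter log-logistic model. The IC50 was taken from those curves.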

LAMA-84 = system: LAMA-84
Procedure, shortened: as §1

Mono-Mac-6 = system: Mono-Mac-6
Procedure, shortened: as §1

HL-60 = system: HL-60
Procedure, shortened: as §1

HEL = system: HEL
Procedure, shortened: as §1

NOMO-1 = system: NOMO-1
Procedure, shortened: as §1

K-562 = system: K-562
Procedure, shortened: as §1

MOLM-13 = system: MOLM-13
Procedure, shortened: as §1

KU-812 = system: KU-812
Procedure, shortened: as §1

BV-173 = system: BV-173
Procedure, shortened: as §1

KCL-22 = system: KCL-22
Procedure, shortened: as §1

KG-1 = system: KG-1
Procedure, shortened: as §1

THP-1 = system: THP-1
Procedure, shortened: as §1

SHI-1 = system: SHI-1
Procedure, shortened: as §1

Row | Compound | IC50 (cell viability) (ML-2) | IC50 (cell viability) (LAMA-84) | IC50 (cell viability) (Mono-Mac-6) | IC50 (cell viability) (HL-60) | IC50 (cell viability) (HEL) | IC50 (cell viability) (NOMO-1) | IC50 (cell viability) (K-562) | IC50 (cell viability) (MOLM-13) | IC50 (cell viability) (KU-812) | IC50 (cell viability) (BV-173) | IC50 (cell viability) (KCL-22) | IC50 (cell viability) (KG-1) | IC50 (cell viability) (THP-1) | IC50 (cell viability) (SHI-1)
1 | C=C1C(=O)O[C@H](CCCCCCCC)[C@H]1C(=O)O [C75] | > 10 µM | > 10 µM | > 10 µM | > 10 µM | > 10 µM | > 10 µM | > 10 µM | > 10 µM | > 10 µM | > 10 µM | > 10 µM | > 10 µM | > 10 µM | > 10 µM
2 | O=C1N[C@@H]2[C@@H](O)[C@@H](O)[C@H](O)[C@@H](CO)N2C1=O [Kifunensine] | > 10 µM | > 10 µM | > 10 µM | > 10 µM | > 10 µM | > 10 µM | > 10 µM | > 10 µM | > 10 µM | > 10 µM | > 10 µM | > 10 µM | > 10 µM | > 10 µM
3 | OCCN(CCO)c1nc(N2CCCCC2)c2nc(N(CCO)CCO)nc(N3CCCCC3)c2n1 [Dipyridamole] | > 10 µM | > 10 µM | > 10 µM | > 10 µM | > 10 µM | > 10 µM | > 10 µM | > 10 µM | > 10 µM | 3.55 µM | > 10 µM | > 10 µM | > 10 µM | > 10 µM
4 | NCc1ccc(-c2cccnc2)s1 [(5-Pyrid-3-YLTHIEN-2-YL)METHYLAMINE] | > 10 µM | > 10 µM | > 10 µM | > 10 µM | > 10 µM | > 10 µM | > 10 µM | > 10 µM | > 10 µM | > 10 µM | > 10 µM | > 10 µM | > 10 µM | > 10 µM
5 | Cc1cc(O)c2c(c1)C(=O)c1cc(O)cc(O)c1C2=O [Emodin] | > 10 µM | > 10 µM | > 10 µM | > 10 µM | > 10 µM | > 10 µM | > 10 µM | > 10 µM | > 10 µM | > 10 µM | > 10 µM | > 10 µM | > 10 µM | > 10 µM
6 | OC[C@H]1OC(O)C[C@@H](O)[C@@H]1O (stereo partly specified) [2-deoxyglucose] | > 10 µM | > 10 µM | > 10 µM | > 10 µM | > 10 µM | > 10 µM | > 10 µM | > 10 µM | > 10 µM | > 10 µM | > 10 µM | > 10 µM | > 10 µM | > 10 µM
7 | CC(C)(CS(=O)(=O)[O-])NC(=O)CC[N+](C)(C)CCO | > 10 µM | > 10 µM | > 10 µM | > 10 µM | > 10 µM | > 10 µM | > 10 µM | > 10 µM | > 10 µM | > 10 µM | > 10 µM | > 10 µM | > 10 µM | > 10 µM
8 | OCCN1C[C@H](O)[C@@H](O)[C@H](O)[C@H]1CO [Miglitol] | > 10 µM | > 10 µM | > 10 µM | > 10 µM | > 10 µM | > 10 µM | > 10 µM | > 10 µM | > 10 µM | > 10 µM | > 10 µM | > 10 µM | > 10 µM | > 10 µM
9 | Cn1cc(C[C@@H](N)C(=O)O)c2ccccc21 [Indoximod] | > 10 µM | > 10 µM | > 10 µM | > 10 µM | > 10 µM | > 10 µM | > 10 µM | > 10 µM | > 10 µM | > 10 µM | > 10 µM | > 10 µM | > 10 µM | > 10 µM
10 | N=C(N)c1ccc(N=NNc2ccc(C(=N)N)cc2)cc1 [Diminazene] | > 10 µM | > 10 µM | > 10 µM | > 10 µM | > 10 µM | > 10 µM | > 10 µM | > 10 µM | > 10 µM | > 10 µM | > 10 µM | > 10 µM | > 10 µM | > 10 µM
11 | NC(CCC(=O)NC(CSCc1ccc(Br)cc1)C(=O)NCC(=O)OC1CCCC1)C(=O)OC1CCCC1 (stereo unspecified) [S-para-Bromobenzylglutathione cyclopentyl diester] | 3.95 µM | > 10 µM | > 10 µM | > 10 µM | > 10 µM | > 10 µM | > 10 µM | > 10 µM | > 10 µM | 2.32 µM | > 10 µM | > 10 µM | > 10 µM | > 10 µM
12 | CN1CC(=O)N2[C@H](c3ccc4c(c3)OCO4)c3[nH]c4ccccc4c3C[C@@H]2C1=O [Tadalafil] | > 10 µM | > 10 µM | > 10 µM | > 10 µM | > 10 µM | > 10 µM | > 10 µM | > 10 µM | > 10 µM | > 10 µM | > 10 µM | > 10 µM | > 10 µM | > 10 µM
13 | CC(=O)N[C@@H](CS)C(=O)O [Acetylcysteine] | > 10 µM | > 10 µM | > 10 µM | > 10 µM | > 10 µM | > 10 µM | > 10 µM | > 10 µM | > 10 µM | > 10 µM | > 10 µM | > 10 µM | > 10 µM | > 10 µM
14 | CCCCC/C=C\C/C=C\C/C=C\C/C=C\CCCC(=O)C(F)(F)F [Arachidonyl trifluoromethyl ketone] | > 10 µM | > 10 µM | 7.99 µM | > 10 µM | > 10 µM | > 10 µM | > 10 µM | > 10 µM | > 10 µM | > 10 µM | > 10 µM | > 10 µM | > 10 µM | > 10 µM
